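96-well plates; 48 h exposure; 5 concentrations. Endpoints by linear interpolation between flanking doses. Not reached: highest tested concentration assigned. TGI: concentration producing complete growth inhibition.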 Some results are limits rather than exact numbers.

The first test concerns CAKI-1 renal. Kind of test: NCI anticancer screen, dose series, 48 h.
`Cc1nc(Cl)c(CBr)c(Cl)n1` yielded a TGI of 4.01 µM.

The compound `N#CSCc1cccc(Nc2cc(=O)[nH]c(=O)[nH]2)c1` showed a TGI of more than 100 µM.

`COc1ccc2c(c1)C(=O)c1ccccc1C2` registered a TGI of more than 100 µM.

On to `CC(C)/C(Cl)=N\OC(=O)NNc1ccccc1`, for which the TGI amounted to 28.2 µM.

In the case of `CC1=CC=CC(C)(C)CC1(O[Si](C)(C)C)C(F)(F)F` (stereo not given), the TGI is more than 100 µM.

For the compound `CN(O)C(=O)Cc1ccc(OCc2cccc(Cl)c2)cc1`, the TGI is more than 100 µM.

`CN(C)c1ccc(/C(Br)=C2\OC(=O)c3ccccc32)cc1` had a TGI of more than 100 µM.

Turning to `CN1C(=O)CN(NC(=O)C2=C(O)c3ccc(Br)cc3S(=O)(=O)N2)C1=S`, the TGI is more than 100 µM.

Regarding `O=C1OC[C@@H]2Cc3c([nH]c4ccccc34)[C@@H](c3ccc(O)cc3)N12`, the TGI worked out at 97.5 µM.

In the case of `Nc1ncnc2c1ncn2C(=O)NC12CC3CC(CC(C3)C1)C2`, the TGI is more than 100 µM.

As for `CC1=C2c3ccccc3N(C(=O)/C=C/C(=O)O)[C@H]2[C@H]2C(=O)OC(=O)[C@H]2C1`, the TGI is more than 10 µM.

`CCOP(=O)(OCC)/C(F)=C/c1ccccc1` had a TGI of more than 100 µM.

In the case of `CC(C)(CO)N1C(=O)c2ccccc2C1(O)c1ccc(Cl)cc1` (stereo not given), the TGI was more than 100 µM.

Turning to `C(=Nc1ccc(-c2nc3ccccc3s2)cc1)c1ccco1`, the TGI is more than 100 µM.

For the compound `Cc1cccc(N(CCC#N)S(=O)(=O)c2ccccc2)c1`, the TGI is more than 100 µM.

For `c1ccc2c(c1)CCCN1CCc3ccccc3C21` (stereo not given), the TGI was more than 100 µM.

In turn, `COC(=O)C1CC(C=[N+](C)C)=C(SC)N1` (stereo not given) displayed a TGI of more than 100 µM.

The compound `N#Cc1c(OCCF)c2ccccc2n2c1nc1ccccc12` came in with a TGI of more than 100 µM.

Turning to `CC1CC(C#N)=C2NCCCCN2C1=O` (stereo not given), the TGI was more than 100 µM.

In turn, `CCOC(=O)C1CC(O)C(=O)N1C` (stereo not given) came in with a TGI of more than 100 µM.

The next test has as its system OVCAR-5 ovarian. Kind of test: NCI anticancer screen, dose series, 48 h.
In turn, `Cc1oc2nc(N(C)C)n3nnnc3c2c1C` yielded a TGI of more than 100 µM.

`Cc1nc2cc(C(F)(F)F)ccc2[nH]c1=O` displayed a TGI of more than 100 µM.

In turn, `Cc1nc(Cl)c(CBr)c(Cl)n1` came in with a TGI of 3.84 µM.

Consider `N#CSCc1cccc(Nc2cc(=O)[nH]c(=O)[nH]2)c1`, for which the TGI was more than 100 µM.

The compound `COc1ccc2c(c1)C(=O)c1ccccc1C2` showed a TGI of more than 100 µM.

The compound `CC(C)/C(Cl)=N\OC(=O)NNc1ccccc1` registered a TGI of more than 100 µM.

The compound `CC1=CC=CC(C)(C)CC1(O[Si](C)(C)C)C(F)(F)F` (stereo not given) displayed a TGI of more than 100 µM.

On to `CN(O)C(=O)Cc1ccc(OCc2cccc(Cl)c2)cc1`, for which the TGI was more than 100 µM.

Compound `CN(C)c1ccc(/C(Br)=C2\OC(=O)c3ccccc32)cc1` registered a TGI of more than 100 µM.

Turning to `CN1C(=O)CN(NC(=O)C2=C(O)c3ccc(Br)cc3S(=O)(=O)N2)C1=S`, the TGI was more than 100 µM.

`O=C1OC[C@@H]2Cc3c([nH]c4ccccc34)[C@@H](c3ccc(O)cc3)N12` came in with a TGI of more than 100 µM.

`Nc1ncnc2c1ncn2C(=O)NC12CC3CC(CC(C3)C1)C2`: the TGI was more than 100 µM.

In turn, `CC1=C2c3ccccc3N(C(=O)/C=C/C(=O)O)[C@H]2[C@H]2C(=O)OC(=O)[C@H]2C1` had a TGI of more than 10 µM.

In turn, `CCOP(=O)(OCC)/C(F)=C/c1ccccc1` had a TGI of more than 100 µM.

Consider `CC(C)(CO)N1C(=O)c2ccccc2C1(O)c1ccc(Cl)cc1` (stereo not given), for which the TGI is more than 100 µM.

`C(=Nc1ccc(-c2nc3ccccc3s2)cc1)c1ccco1` showed a TGI of more than 100 µM.

Turning to `Cc1cccc(N(CCC#N)S(=O)(=O)c2ccccc2)c1`, the TGI was more than 100 µM.

As for `c1ccc2c(c1)CCCN1CCc3ccccc3C21` (stereo not given), the TGI was more than 100 µM.

As to `COC(=O)C1CC(C=[N+](C)C)=C(SC)N1` (stereo not given), the TGI is more than 100 µM.

On to `N#Cc1c(OCCF)c2ccccc2n2c1nc1ccccc12`, for which the TGI is more than 100 µM.

In the case of `CCOC(=O)C1CC(O)C(=O)N1C` (stereo not given), the TGI is more than 100 µM.

The subject of a further test is SK-MEL-28 melanoma. The test can be described thus: NCI anticancer screen, dose series, 48 h.
The compound `Cc1oc2nc(N(C)C)n3nnnc3c2c1C` had a TGI of more than 100 µM.

`Cc1nc2cc(C(F)(F)F)ccc2[nH]c1=O` had a TGI of more than 100 µM.

`Cc1nc(Cl)c(CBr)c(Cl)n1` returned a TGI of 3.07 µM.

In turn, `N#CSCc1cccc(Nc2cc(=O)[nH]c(=O)[nH]2)c1` displayed a TGI of more than 100 µM.

Consider `COc1ccc2c(c1)C(=O)c1ccccc1C2`, for which the TGI was more than 100 µM.

For `CC(C)/C(Cl)=N\OC(=O)NNc1ccccc1`, the TGI was more than 100 µM.

Take `CC1=CC=CC(C)(C)CC1(O[Si](C)(C)C)C(F)(F)F` (stereo not given): the TGI is more than 100 µM.

For `CN(O)C(=O)Cc1ccc(OCc2cccc(Cl)c2)cc1`, the TGI was more than 100 µM.

`CN(C)c1ccc(/C(Br)=C2\OC(=O)c3ccccc32)cc1`: the TGI was more than 100 µM.

For `CN1C(=O)CN(NC(=O)C2=C(O)c3ccc(Br)cc3S(=O)(=O)N2)C1=S`, the TGI was more than 100 µM.

In turn, `O=C1OC[C@@H]2Cc3c([nH]c4ccccc34)[C@@H](c3ccc(O)cc3)N12` gave a TGI of more than 100 µM.

The compound `Nc1ncnc2c1ncn2C(=O)NC12CC3CC(CC(C3)C1)C2` showed a TGI of more than 100 µM.

Turning to `CC1=C2c3ccccc3N(C(=O)/C=C/C(=O)O)[C@H]2[C@H]2C(=O)OC(=O)[C@H]2C1`, the TGI is more than 10 µM.

`CCOP(=O)(OCC)/C(F)=C/c1ccccc1` returned a TGI of more than 100 µM.

As to `CC(C)(CO)N1C(=O)c2ccccc2C1(O)c1ccc(Cl)cc1` (stereo not given), the TGI was more than 100 µM.

For the compound `C(=Nc1ccc(-c2nc3ccccc3s2)cc1)c1ccco1`, the TGI was more than 100 µM.

The compound `Cc1cccc(N(CCC#N)S(=O)(=O)c2ccccc2)c1` had a TGI of more than 100 µM.

In turn, `c1ccc2c(c1)CCCN1CCc3ccccc3C21` (stereo not given) gave a TGI of more than 100 µM.

As for `COC(=O)C1CC(C=[N+](C)C)=C(SC)N1` (stereo not given), the TGI is more than 100 µM.

On to `N#Cc1c(OCCF)c2ccccc2n2c1nc1ccccc12`, for which the TGI is more than 100 µM.

The compound `CC1CC(C#N)=C2NCCCCN2C1=O` (stereo not given) came in with a TGI of more than 100 µM.

Compound `CCOC(=O)C1CC(O)C(=O)N1C` (stereo not given) showed a TGI of more than 100 µM.

Another test has as its system SW-620 colon. The test can be described thus: NCI anticancer screen, dose series, 48 h.
For `Cc1oc2nc(N(C)C)n3nnnc3c2c1C`, the TGI is more than 100 µM.

As for `Cc1nc2cc(C(F)(F)F)ccc2[nH]c1=O`, the TGI was more than 100 µM.

For `N#CSCc1cccc(Nc2cc(=O)[nH]c(=O)[nH]2)c1`, the TGI was more than 100 µM.

With `COc1ccc2c(c1)C(=O)c1ccccc1C2`, the TGI was more than 100 µM.

The compound `CC(C)/C(Cl)=N\OC(=O)NNc1ccccc1` returned a TGI of more than 44.1 µM.

`CC1=CC=CC(C)(C)CC1(O[Si](C)(C)C)C(F)(F)F` (stereo not given) showed a TGI of more than 100 µM.

The compound `CN(O)C(=O)Cc1ccc(OCc2cccc(Cl)c2)cc1` yielded a TGI of more than 100 µM.

Take `CN(C)c1ccc(/C(Br)=C2\OC(=O)c3ccccc32)cc1`: the TGI is more than 100 µM.

In turn, `CN1C(=O)CN(NC(=O)C2=C(O)c3ccc(Br)cc3S(=O)(=O)N2)C1=S` returned a TGI of more than 100 µM.

Consider `O=C1OC[C@@H]2Cc3c([nH]c4ccccc34)[C@@H](c3ccc(O)cc3)N12`, for which the TGI was more than 100 µM.

On to `Nc1ncnc2c1ncn2C(=O)NC12CC3CC(CC(C3)C1)C2`, for which the TGI was more than 100 µM.

`CC1=C2c3ccccc3N(C(=O)/C=C/C(=O)O)[C@H]2[C@H]2C(=O)OC(=O)[C@H]2C1` returned a TGI of more than 10 µM.

The compound `CCOP(=O)(OCC)/C(F)=C/c1ccccc1` had a TGI of more than 100 µM.

For the compound `CC(C)(CO)N1C(=O)c2ccccc2C1(O)c1ccc(Cl)cc1` (stereo not given), the TGI is more than 100 µM.

As to `C(=Nc1ccc(-c2nc3ccccc3s2)cc1)c1ccco1`, the TGI is more than 100 µM.

Regarding `Cc1cccc(N(CCC#N)S(=O)(=O)c2ccccc2)c1`, the TGI is more than 100 µM.

In the case of `c1ccc2c(c1)CCCN1CCc3ccccc3C21` (stereo not given), the TGI was more than 100 µM.

`COC(=O)C1CC(C=[N+](C)C)=C(SC)N1` (stereo not given) returned a TGI of more than 100 µM.

As for `N#Cc1c(OCCF)c2ccccc2n2c1nc1ccccc12`, the TGI is more than 100 µM.

On to `CC1CC(C#N)=C2NCCCCN2C1=O` (stereo not given), for which the TGI is more than 100 µM.

The next test has as its system T-47D breast. The test can be described thus: NCI anticancer screen, dose series, 48 h.
The compound `Cc1oc2nc(N(C)C)n3nnnc3c2c1C` returned a TGI of more than 100 µM.

`Cc1nc2cc(C(F)(F)F)ccc2[nH]c1=O` showed a TGI of more than 100 µM.

Compound `Cc1nc(Cl)c(CBr)c(Cl)n1` yielded a TGI of 4.5 µM.

Regarding `N#CSCc1cccc(Nc2cc(=O)[nH]c(=O)[nH]2)c1`, the TGI is more than 100 µM.

In the case of `COc1ccc2c(c1)C(=O)c1ccccc1C2`, the TGI is 67.8 µM.

In turn, `CC(C)/C(Cl)=N\OC(=O)NNc1ccccc1` gave a TGI of 40.1 µM.

As to `CC1=CC=CC(C)(C)CC1(O[Si](C)(C)C)C(F)(F)F` (stereo not given), the TGI is more than 100 µM.

On to `CN(O)C(=O)Cc1ccc(OCc2cccc(Cl)c2)cc1`, for which the TGI was more than 100 µM.

`CN(C)c1ccc(/C(Br)=C2\OC(=O)c3ccccc32)cc1` showed a TGI of more than 100 µM.

For `CN1C(=O)CN(NC(=O)C2=C(O)c3ccc(Br)cc3S(=O)(=O)N2)C1=S`, the TGI was more than 100 µM.

With `O=C1OC[C@@H]2Cc3c([nH]c4ccccc34)[C@@H](c3ccc(O)cc3)N12`, the TGI is more than 100 µM.

For the compound `Nc1ncnc2c1ncn2C(=O)NC12CC3CC(CC(C3)C1)C2`, the TGI is more than 100 µM.

In turn, `CC1=C2c3ccccc3N(C(=O)/C=C/C(=O)O)[C@H]2[C@H]2C(=O)OC(=O)[C@H]2C1` displayed a TGI of more than 10 µM.

With `CCOP(=O)(OCC)/C(F)=C/c1ccccc1`, the TGI is more than 100 µM.

`CC(C)(CO)N1C(=O)c2ccccc2C1(O)c1ccc(Cl)cc1` (stereo not given) came in with a TGI of more than 100 µM.

`C(=Nc1ccc(-c2nc3ccccc3s2)cc1)c1ccco1`: the TGI is more than 100 µM.

Turning to `Cc1cccc(N(CCC#N)S(=O)(=O)c2ccccc2)c1`, the TGI is more than 100 µM.

`c1ccc2c(c1)CCCN1CCc3ccccc3C21` (stereo not given) returned a TGI of more than 100 µM.

`COC(=O)C1CC(C=[N+](C)C)=C(SC)N1` (stereo not given) displayed a TGI of more than 100 µM.

For the compound `N#Cc1c(OCCF)c2ccccc2n2c1nc1ccccc12`, the TGI is more than 100 µM.

Consider `CC1CC(C#N)=C2NCCCCN2C1=O` (stereo not given), for which the TGI was more than 100 µM.

With `CCOC(=O)C1CC(O)C(=O)N1C` (stereo not given), the TGI was more than 100 µM.

Source of the values: PubChem BioAssay (NCI).
